Values quoted from earlier work as cited in patent US8293845B2, “Irritation mitigating polymers and uses therefor” (priority 2006, dated 2012).

Conditions: from Schoenberg, Household & Personal Products Industry 1979

CCCCCCCCCCCCOS(=O)(=O)[O-].[Na+] [sodium lauryl sulfate]
eye irritation: causes significant eye irritation
